Patent publication US11731985B2, “Compositions and methods for treating cancer” (Hb Therapeutics Inc., priority 2018, dated 2023)
Where a SMILES comes first, the peptide text is derived from it. The star is where a group is joined. Cbz = O=C(OCc1ccccc1)*

Tests used:
SUMO1 [1] = target: T1, SUMO1 (Homo sapiens, UniProt P63165); assay: Western and dot blot assays for SUMO1 conjugation and SUMO1 protein levels in LN229 cells; format: cell-based; parameters: analyzed by western blotting for detection of the conjugate and free form of SUMO1 protein and dot blotting for total levels of SUMO1 protein; endogenous in cells; host or cells: LN229 glioblastoma cells
T1 sequence (P63165 1-97 limits assumed): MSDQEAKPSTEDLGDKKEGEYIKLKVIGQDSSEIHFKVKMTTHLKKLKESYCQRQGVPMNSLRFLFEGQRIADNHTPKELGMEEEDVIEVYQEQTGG
Experimental: FIG. 2A illustrates how the glioblastoma LN229 cell line was treated with each of compounds of the National Cancer Institute (NCI) Diversity Set IV library and analyzed by western blot assays using SUMO1, SUMO2/3, UB and β-actin antibodies.
(§1) LN229 cell were treated with a series of dilutions of CPD1 and examined by cell viability assay for cell growth inhibition (FIG. 2B). […] Therefore, CPD1 acts as the degrader of SUMO1 protein and inhibitor of SUMO1 conjugation in cancer cells.
(§2) The non-conjugated Flag-tagged SUMO1 (Flag-SUMO1-GV) and the HA-tagged wild type (WT) UB (HA-UB-WT) were co-transfected in LN229 cells.

LN229 cells = assay: Cell viability assay, LN229 cells; format: cell-based, human; conditions: for IC50: Homo sapiens, LN-229, LN229 cells, read-out: Inhibition of Cancer Cell Growth (IC50)
Experimental: Each of the compounds was used to treat the cancer LN229 cells and examined first by western and dot blot assays for the degradation of SUMO1 protein and then by cell viability assay for the IC50 values of anticancer activity.
as §1

SUMO1 [2] = assay: Ubiquitination of Flag-SUMO1 (immunoprecipitation, western blot) in co-transfected LN229 cells; format: cell-based, human; conditions: LN229 cells co-transfected with Flag-SUMO1-GV and HA-UB-WT
Source text: as §2

colon HCT116 xenografts = assay: Subcutaneous xenografts of colon HCT116 cancer cell line in nude mice; format: in vivo
Experimental: (§3) For the therapeutic effects of the compounds, we examined the effects of CPD1 and CPD24 on various types of cancer xenografts in mice. […] NOD/SCID mice bearing intracranial brain xenografts of glioblastoma LN229 cell line were treated with CPD1.

lung A549 xenografts = assay: Subcutaneous xenografts of lung A549 cancer cell line in nude mice; format: in vivo
Experimental: as §3

[3] = test system: colon cancer PDX (L1206F); assay: Patient derived xenograft of colon cancer (L1206F); format: in vivo, mice
Source text: (§4) The left two graphs show data for compounds CPD1 and the middle two graphs show data for CPD24 treatment of colon cancer PDX (L1206F). […] The right two graphs show data for compound CPD1 and CPD24 treatment of lung cancer PDX (L1102F). […] The significance of **P<0.01, and ***P<0.001 was statistically analyzed.
as §3

lung cancer PDX (L1102F) = assay: Patient derived xenograft of lung cancer (L1102F); format: in vivo, mice; conditions: for PDX growth: CPD24 25 and 50 mg/kg, CPD1 100 mg/kg
Source text: as §4, §3

[4] = Tolerability across all xenograft mice; format: in vivo; conditions: over the treatment period
Experimental: as §3

SUMO1 [5] = target: T1, SUMO1; assay: Western and dot blot of normal lung epithelial Nuli-1 and lung cancer cells; format: cell-based; parameters: CPD24 treatment reduces SUMO1 conjugation and total levels of SUMO1 protein in the cancer but not normal cells; endogenous in cells
[6] = test system: NCI-60 panel cancer cell lines; assay: Cell growth analysis of NCI-60 panel cancer cell lines; format: cell-based, human; conditions: FIG. 5C
[7] = test system: intracranial glioblastoma LN229 xenografts; assay: Intracranial brain xenografts of glioblastoma LN229 in NOD/SCID mice, Kaplan Meier survival; format: in vivo; conditions: intracranial LN229, log rank test
Experimental: as §3

log P = format: physicochemical
Source text: (§5) For example, without limitation, pharmaceutical compositions of this compound (CPD1) can comprise a molecular weight 348 g/mol and the log P value 3.7.

[8] = Pharmacokinetics, tissue distribution and toxicity in mice, intraperitoneal administration; format: in vivo
Source text: as §5

## CC(C)C[C@@H](C=O)NC(=O)[C@H](CC(C)C)NC(=O)[C@H](CC(C)C)NC(=O)OCc1ccccc1 [MG132, reference compound] (Cbz-Leu-Leu-Leu-aldehyde)
SUMO1 [1]; LN229 cells treated with CPD1, followed by MG132
  effect of MG132 on CPD1-induced degradation of SUMO1 protein: prevents CPD1-induced degradation of SUMO1 protein

## N#Cc1ccc2nc(NC(=O)Nc3cccc(Cl)c3)sc2c1 [Compound 24, 1-(3-chlorophenyl)-3-(6-cyano-1,3-benzothiazol-2-yl)urea]
LN229 cells
  IC50: ≤ 5 µM
LN229 cells; LN229 cells, FIG. 3A
  inhibition of the cell growth, compared with the other representative compounds: much more potent in inhibition of the cell growth
SUMO1 [2]
  poly-ubiquitination of SUMO1 protein: results in the poly-ubiquitination of SUMO1 protein
Colon HCT116 xenografts
  xenograft progression: significantly suppressed xenograft progression
Lung A549 xenografts
  xenograft progression: significantly suppressed xenograft progression
[3]
  body weight of mice: had no effects on the body weight of mice
  tumor growth (tumor sizes): significantly inhibits the tumor growth of the colon cancer PDXs
Lung cancer PDX (L1102F)
  mouse body weight: no effects of the treatment on mouse body weight
  PDX growth: markedly inhibits the PDX growth
Lung cancer PDX (L1102F); CPD24 25 and 50 mg/kg versus CPD1 100 mg/kg
  PDX growth inhibition, potency compared with CPD1: more potent
[4]
  tolerability, clinical signs: well tolerated over the treatment period with no clinical signs of lethargy, ataxia, paralysis, seizure or weight loss
SUMO1 [5]
  SUMO1 conjugation and total SUMO1 protein in normal versus cancer cells: reduces SUMO1 conjugation and total levels of SUMO1 protein only in cancer cells

## N#Cc1ccc2nc(NC(=O)Nc3ccc4[nH]c(=O)[nH]c4c3)sc2c1 [Compound 108]
LN229 cells
  IC50: > 20 µM

## CCOC(=O)c1ccc2nc(NC(=O)Nc3cccc(C#N)c3)sc2c1 [Compound 53]
LN229 cells
  IC50: ≤ 5 µM

## Cc1ccc(NC(=O)Nc2nc3ccc(C#N)cc3s2)nc1 [Compound 35]
LN229 cells
  IC50: > 20 µM

## O=C(Nc1ccc(Cl)cc1)Nc1nc2cccc([N+](=O)[O-])c2s1 [Compound 15]
LN229 cells
  IC50: > 20 µM

## N#Cc1ccc2nc(NC(=O)Nc3cccc(Br)c3)sc2c1 [Compound 31, 1-(3-bromophenyl)-3-(6-cyano-1,3-benzothiazol-2-yl)urea]
LN229 cells
  IC50: ≤ 5 µM

## CC(C(=O)Nc1nc2ccc(C#N)cc2s1)c1ccccc1 (stereo not drawn) [Compound 54]
LN229 cells
  IC50: > 20 µM

## N#Cc1ccc2nc(NC(=O)Nc3ccccc3C(F)(F)F)sc2c1 [Compound 51]
LN229 cells
  IC50: ≤ 20 µM

## O=C(Nc1cccc([N+](=O)[O-])c1)Nc1nc2ccc(F)cc2s1 [Compound 10]
LN229 cells
  IC50: ≤ 5 µM

## O=C(Nc1ccc(Cl)cc1)Nc1nc2ccccc2s1 [Compound 7]
LN229 cells
  IC50: > 20 µM

## CC(C)(C)OC(=O)NC1CCc2nc(NC(=O)Nc3cccc(C#N)c3)sc2C1 (stereo not drawn) [Compound 61]
LN229 cells
  IC50: ≤ 5 µM

## N#Cc1ccc2nc(NC(=O)Nc3cccc(Oc4ccccc4)c3)sc2c1 [Compound 98]
LN229 cells
  IC50: ≤ 5 µM

## CN(C)C1CCc2nc(NC(=O)Nc3cccc(C#N)c3)sc2C1 (stereo not drawn) [Compound 69]
LN229 cells
  IC50: ≤ 20 µM

## O=C(Nc1nc2ccc([N+](=O)[O-])cc2s1)c1ccc(F)cc1 [Compound 25]
LN229 cells
  IC50: > 20 µM

## N#Cc1ccc2nc(NC(=O)Nc3cccc(C(=O)OCCOCCN)c3)sc2c1 [Compound 112]
LN229 cells
  IC50: > 20 µM

## Cc1nc2ccc(NC(=O)Nc3cccc([N+](=O)[O-])c3)cc2s1 [Compound 22]
LN229 cells
  IC50: ≤ 20 µM

## N#Cc1ccc(NC(=O)Nc2nc3ccc(Cl)cc3s2)cc1C#N [Compound 91]
LN229 cells
  IC50: ≤ 5 µM

## COc1cncc(NC(=O)Nc2nc3ccc(C#N)cc3s2)c1 [Compound 81]
LN229 cells
  IC50: > 20 µM

## N#Cc1ccc(Cl)c(NC(=O)Nc2nc3ccc(Cl)cc3s2)c1 [Compound 86]
LN229 cells
  IC50: ≤ 5 µM

## N#Cc1cc(NC(=O)Nc2nc3ccc(Cl)cc3s2)ccc1F [Compound 92]
LN229 cells
  IC50: ≤ 5 µM

## N#Cc1cccc(NC(=O)Nc2nc3ccc(Cl)cc3s2)c1F [Compound 95]
LN229 cells
  IC50: > 20 µM

## O=C(Cc1ccc(Cl)cc1)Nc1nc2ccc([N+](=O)[O-])cc2s1 [Compound 26, 2-(4-chlorophenyl)-N-(6-nitro-1,3-benzothiazol-2-yl)acetamide]
LN229 cells
  IC50: ≤ 20 µM

## N#Cc1ccc2nc(NC(=O)Nc3ccnc(Cl)c3)sc2c1 [Compound 99]
LN229 cells
  IC50: ≤ 5 µM

## N#Cc1ccc(NC(=O)Nc2nc3ccc(C(F)(F)F)cc3s2)c(Cl)c1 [Compound 116]
LN229 cells
  IC50: ≤ 5 µM

## N#Cc1cc(Br)cc(NC(=O)Nc2nc3ccc(Cl)cc3s2)c1 [Compound 106]
LN229 cells
  IC50: ≤ 20 µM

## O=C(Nc1ccc(Cl)c([N+](=O)[O-])c1)Nc1nc2ccccc2s1 [Compound 1]
LN229 cells
  IC50: ≤ 5 µM
SUMO1 [2]
  poly-ubiquitination of SUMO1 protein: results in the poly-ubiquitination of SUMO1 protein
[6]
  cell growth of NCI-60 panel cancer cell lines: significantly inhibits the cell growth of breast, colon, lung, kidney, ovarian, prostate, skin (melanocytic) and blood (leukemic) cancers
Colon HCT116 xenografts
  xenograft progression: significantly suppressed xenograft progression
Lung A549 xenografts
  xenograft progression: significantly suppressed xenograft progression
[7]
  survival of xenograft mice: increases the survival of xenograft mice
[3]
  body weight of mice: had no effects on the body weight of mice
  tumor growth (tumor sizes): significantly inhibits the tumor growth of the colon cancer PDXs
Lung cancer PDX (L1102F)
  mouse body weight: no effects of the treatment on mouse body weight
  PDX growth: markedly inhibits the PDX growth
[4]
  tolerability, clinical signs: well tolerated over the treatment period with no clinical signs of lethargy, ataxia, paralysis, seizure or weight loss
Log P
  logP: 3.7
[8]; distribution in brain tumors
  blood brain barrier crossing: can cross the blood brain barrier
[8]; mice, intraperitoneal administration
  toxicity to normal tissues, side effects: no toxicity to normal tissues or side effects on mice
[8]; mouse cancer xenografts, intraperitoneal administration
  pharmacokinetics and tissue distribution: sufficient for degrading SUMO1 protein in mouse cancer xenografts
SUMO1 [1]; LN229 cells, western and dot blotting
  conjugated, free form and total levels of SUMO1 protein: reduces the conjugated, free form and total levels of SUMO1 proteins
SUMO1 [1]; LN229 cells, western blot, FIG. 2A
  selectivity of inhibition of conjugation (SUMO1, SUMO2/3, UB): selectively inhibiting the conjugation of SUMO1 but not SUMO2/3 or UB

## N#Cc1cccc(NC(=O)Nc2nc3ccc([N+](=O)[O-])cc3s2)c1 [Compound 72]
LN229 cells
  IC50: ≤ 5 µM

## CC(C)(C)c1ccc(NC(=O)Nc2nc3ccc(C#N)cc3s2)cc1 [Compound 40]
LN229 cells
  IC50: > 20 µM

## COc1ccc2nc(NC(=O)Nc3cccc(C#N)c3)sc2c1 [Compound 43]
LN229 cells
  IC50: ≤ 20 µM

## N#Cc1ccc(F)c(NC(=O)Nc2nc3ccc(Cl)cc3s2)c1 [Compound 96]
LN229 cells
  IC50: ≤ 5 µM

## N#Cc1cccc(NC(=O)Nc2nc3ccc(C#N)cc3s2)c1 [Compound 66]
LN229 cells
  IC50: ≤ 5 µM

## N#Cc1ccc2nc(NC(=O)Nc3cc(Cl)cc(Cl)c3)sc2c1 [Compound 37]
LN229 cells
  IC50: ≤ 5 µM
